Laboratory results taken from patent publication US9707234B2, “Spirocyclic hetercycle compounds useful as HIV integrase inhibitors” (MERCK SHARP & DOHME CORP., priority 2013, dated 2017).
Like-named read-outs stand apart in the source and are kept apart here.

System: HIV-1 (H9IIIB or NL4-3 virus) replication in MT4-GFP cells
Test: microbe, parasite or virus in culture
Type: cell-based
Settings: inhibition of reproductive ratio R0, 48-72 h post-infection
[1] = Human immunodeficiency virus 1, NL43, MT4-GFP cells infected with HIV-1, 100% normal human serum, read-out: ViKinG IP (nM) with 100% NHS
[2] = Human immunodeficiency virus 1, NL43, MT4-GFP cells infected with HIV-1, serum free conditions (0% NHS), read-out: ViKinG IP (nM) with 0% NHS
[3] = Human immunodeficiency virus 1, NL43, MT4-GFP cells infected with HIV-1, 10% normal human serum, read-out: ViKinG IP (nM) with 10% NHS
[4] = MT4-GFP cells infected with HIV-1, 100% normal human serum, read-out: ViKinG IP (nM) with 100% NHS
[5] = MT4-GFP cells infected with HIV-1, serum free conditions (0% NHS), read-out: ViKinG IP (nM) with 0% NHS

| SMILES | IC50 [1] | IC50 [2] | IC50 [3] | IC50 [4] | IC50 [5] | IC50 (MT4-GFP cells infected with HIV-1, 10% normal human serum, read-out: ViKinG IP (nM) with 10% NHS) |
| --- | --- | --- | --- | --- | --- | --- |
| CCN1C(=O)c2c(O)c(=O)c(-c3nnc(Cc4ccc(F)cc4F)s3)cn2N(C)C12CCNCC2 [Compound 32] | 74 nM | 8 nM | – | – | – | – |
| CCN1C(=O)c2c(O)c(=O)c(-c3nnc(Cc4ccc(F)cc4)s3)cn2N(C)C12CCNCC2 [Compound 33] | 89 nM | – | 49 nM | – | – | – |
| CN1C(=O)c2c(O)c(=O)c(-c3nnc(Cc4ccc(F)cc4F)s3)cn2N(C)C12CCCNCC2 (stereo not drawn) [Compound 34] | – | 9.7 nM | 34 nM | – | – | – |
| CCN1C(=O)c2c(O)c(=O)c(-c3nnc(Cc4ccc(F)cc4F)s3)cn2N(C)C12CCCOC2 (stereo not drawn) [Compound 37] | 456 nM | 5.3 nM | – | – | – | – |
| CN1C(=O)c2c(O)c(=O)c(-c3nnc(Cc4ccc(F)cc4)s3)cn2N(C)C12CCOC2 (stereo not drawn) [Compound 38] | 132 nM | 3.8 nM | – | – | – | – |
| CN1C(=O)c2c(O)c(=O)c(C(=O)NCc3ccc(F)cc3F)cn2CC12CCOCC2 [Compound 39] | 49 nM | 4.2 nM | – | – | – | – |
| CCN1C(=O)c2c(O)c(=O)c(C(=O)NCc3ccc(F)cc3F)cn2CC12CCOCC2 [Compound 40] | 236 nM | 2.8 nM | – | – | – | – |
| CCCN1C(=O)c2c(O)c(=O)c(C(=O)NCc3ccc(F)cc3F)cn2CC12CCOCC2 [Compound 41] | 7800 nM | 11.2 nM | – | – | – | – |
| COCCN1C(=O)c2c(O)c(=O)c(C(=O)NCc3ccc(F)cc3F)cn2CC12CCOCC2 [Compound 42] | 234 nM | 2.4 nM | – | – | – | – |
| COCCCN1C(=O)c2c(O)c(=O)c(C(=O)NCc3ccc(F)cc3F)cn2CC12CCOCC2 [Compound 43] | 39 nM | 3 nM | – | – | – | – |
| CCOCCN1C(=O)c2c(O)c(=O)c(C(=O)NCc3ccc(F)cc3F)cn2CC12CCOCC2 [Compound 44] | 57 nM | 5.8 nM | – | – | – | – |
| CCCCCN1C(=O)c2c(O)c(=O)c(C(=O)NCc3ccc(F)cc3F)cn2CC12CCOCC2 [Compound 45] | 236 nM | 6.4 nM | – | – | – | – |
| O=C(NCc1ccc(F)cc1F)c1cn2c(c(O)c1=O)C(=O)N(CCCC(F)(F)F)C1(CCOCC1)C2 [Compound 46] | 110 nM | 3.2 nM | – | – | – | – |
| O=C(NCc1ccc(F)cc1F)c1cn2c(c(O)c1=O)C(=O)N(CCCCC(F)(F)F)C1(CCOCC1)C2 [Compound 47] | 71 nM | 6.6 nM | – | – | – | – |
| COCc1c(C(=O)NCc2ccc(F)cc2F)c(=O)c(O)c2n1CC1(CCOC1)N(C)C2=O (stereo not drawn) [Compound 48] | 194 nM | 124 nM | – | – | – | – |
| CN1C(=O)c2c(O)c(=O)c(C(=O)NCc3ccc(F)c(Cl)c3F)cn2CC12CCOC2 (stereo not drawn) [Compound 55] | 30 nM | 0.6 nM | – | – | – | – |
| CN1C(=O)c2c(O)c(=O)c(C(=O)NCc3ccc(F)cc3F)cn2CC12COC2 [Compound 68] | 134 nM | 7.6 nM | – | – | – | – |
| CCN1C(=O)c2c(O)c(=O)c(C(=O)NCc3ccc(F)cc3F)cn2CC12COC2 [Compound 69] | 452 nM | 3.5 nM | – | – | – | – |
| COCCN1C(=O)c2c(O)c(=O)c(C(=O)NCc3ccc(F)cc3F)cn2CC12COC2 [Compound 70] | 91 nM | 2.5 nM | – | – | – | – |
| CCN1C(=O)c2c(O)c(=O)c(C(=O)NCc3ccc(F)cc3F)cn2CC12CCCOC2 (stereo not drawn) [Compound 81] | – | 4.3 nM | – | 323 nM | – | – |
| CCN1C(=O)c2c(O)c(=O)c(C(=O)NCc3ccc(F)cc3F)cn2CC12CCCOC2 (stereo not drawn) [Compound 82] | – | – | – | 680 nM | 3.1 nM | – |
| COCCN1C(=O)c2c(O)c(=O)c(C(=O)NCc3ccc(F)cc3F)cn2CC12CCNCC2 [Compound 87] | 98 nM | 16 nM | – | – | – | – |
| CN1C(=O)c2c(O)c(=O)c(C(=O)NCc3ccc(F)cc3F)cn2CC12CCNCC2 [Compound 88] | 97 nM | 10.3 nM | – | – | – | – |
| COCCCN1C(=O)c2c(O)c(=O)c(C(=O)NCc3ccc(F)cc3F)cn2CC12CCNCC2 [Compound 89] | 87 nM | 16.1 nM | – | – | – | – |

| SMILES | IC50 [1] | IC50 [2] | IC50 [3] | IC50 [4] | IC50 [5] | IC50 (MT4-GFP cells infected with HIV-1, 10% normal human serum, read-out: ViKinG IP (nM) with 10% NHS) |
| --- | --- | --- | --- | --- | --- | --- |
| CN1C(=O)c2c(O)c(=O)c(-c3cnn(Cc4ccc(F)cc4F)c3)cn2CC12CCOC2 (stereo not drawn) [Compound 90] | 123 nM | 34.1 nM | – | – | – | – |
| CCOC(=O)N1CCC2(CC1)N(CC)C(=O)c1c(O)c(=O)c(-c3cnn(Cc4ccc(F)cc4F)c3)c(CO)n1N2C [Compound 92] | 3650 nM | 159 nM | – | – | – | – |
| CN1C(=O)c2c(O)c(=O)c(-c3nnc(Cc4ccc(F)cc4F)s3)cn2CC12CCNCC2 [Compound 93] | – | 73.9 nM | 114 nM | – | – | – |
| CCOC(=O)N1CCC2(CC1)Cn1cc(-c3nnc(Cc4ccc(F)cc4F)s3)c(=O)c(O)c1C(=O)N2C [Compound 94] | 116 nM | 10.6 nM | – | – | – | – |
| CCOC(=O)N1CCC2(CC1)Cn1cc(-c3nnc(Cc4ccc(F)cc4F)s3)c(=O)c(O)c1C(=O)N2CC [Compound 95] | 104 nM | 11.6 nM | – | – | – | – |
| CCOC(=O)N1CCC2(CC1)Cn1cc(-c3nnc(Cc4ccc(F)cc4F)s3)c(=O)c(O)c1C(=O)N2 [Compound 96] | 2240 nM | 69.3 nM | – | – | – | – |
| O=C1c2c(O)c(=O)c(-c3nnc(Cc4ccc(F)cc4F)s3)cn2CC2(CCOC2)N1CCO (stereo not drawn) [Compound 97] | 1050 nM | 41.7 nM | – | – | – | – |
| O=C1NC2(CCOCC2)Cn2cc(-c3nnc(Cc4ccc(F)cc4F)s3)c(=O)c(O)c21 [Compound 98] | 2030 nM | 91.6 nM | – | – | – | – |
| CCN1C(=O)c2c(O)c(=O)c(-c3nnc(Cc4ccc(F)cc4F)s3)cn2CC12CCOCC2 [Compound 99] | 870 nM | 40.9 nM | – | – | – | – |
| CCC(c1nnc(-c2cn3c(c(O)c2=O)C(=O)N(CC)C2(CCOCC2)C3)s1)c1ccc(F)cc1F (stereo not drawn) [Compound 100] | 704 nM | 29.2 nM | – | – | – | – |
| CN1C(=O)c2c(O)c(=O)c(-c3nnc(Cc4ccc(F)cc4F)s3)cn2CC12CCOC2 (stereo not drawn) [Compound 101] | 70 nM | 4.6 nM | – | – | – | – |
| CC(c1nnc(-c2cn3c(c(O)c2=O)C(=O)N(C)C2(CCOC2)C3)s1)c1ccc(F)cc1F (stereo not drawn) [Compound 102] | 85 nM | 6.8 nM | – | – | – | – |
| CN1C(=O)c2c(O)c(=O)c(C(=O)NCc3ccc(F)cc3F)cn2N(C)C12CCOC2 (stereo not drawn) [Compound 103] | 114 nM | – | 6 nM | – | 1.7 nM | – |
| CN1C(=O)c2c(O)c(=O)c(C(=O)NCc3ccc(F)cc3F)cn2N(C)C12CCOC2 (stereo not drawn) [Compound 104] | – | – | – | 87 nM | 0.8 nM | 4 nM |
| COCCCN1C(=O)c2c(O)c(=O)c(C(=O)NCc3ccc(F)cc3F)cn2N(C)C12CCOCC2 [Compound 141] | 71 nM | 2.3 nM | – | – | – | – |
| CCOCCN1C(=O)c2c(O)c(=O)c(C(=O)NCc3ccc(F)cc3F)cn2N(C)C12CCOCC2 [Compound 142] | 171 nM | 1.3 nM | 13 nM | – | – | – |
| CN1C(=O)c2c(O)c(=O)c(C(=O)NCc3ccc(F)cc3F)cn2N(C)C12COC2 [Compound 143] | 78 nM | 1.4 nM | 7 nM | – | – | – |
| CCN1C(=O)c2c(O)c(=O)c(C(=O)NCc3ccc(F)cc3F)cn2N(C)C12COC2 [Compound 144] | 591 nM | 1.5 nM | 60 nM | – | – | – |
| COCCCN1C(=O)c2c(O)c(=O)c(C(=O)NCc3ccc(F)cc3F)cn2N(C)C12COC2 [Compound 145] | 174 nM | 1.4 nM | – | – | – | – |
| CCOCCN1C(=O)c2c(O)c(=O)c(C(=O)NCc3ccc(F)cc3F)cn2N(C)C12COC2 [Compound 146] | 485 nM | 10.9 nM | – | – | – | – |
| CN1C(=O)c2c(O)c(=O)c(C(=O)NCc3ccc(F)cc3F)cn2N(CCO)C12CCOC2 (stereo not drawn) [Compound 147] | – | 1.6 nM | – | 74 nM | – | – |
| CN1C(=O)c2c(O)c(=O)c(C(=O)NCc3ccc(F)cc3F)cn2N(CCO)C12CCOC2 (stereo not drawn) [Compound 148] | – | – | – | 33 nM | 1.2 nM | – |
| CCN1C(=O)c2c(O)c(=O)c(C(=O)NCc3ccc(F)cc3F)cn2N(C)C12CCNCC2 [Compound 173] | 52 nM | 3.2 nM | – | – | – | – |
